Reference: patent US20230339977A1, “SUBSTITUTED HETEROARYL COMPOUND, AND COMPOSITION AND APPLICATION THEREOF” (SUNSHINE LAKE PHARMA CO., LTD., priority 2020, published 2023)

Test system: JAK2/TYK2
Experiment: Cell level activity test of JAK2/TYK2 (IL-12 mediated IFNγ expression in NK92 cells)
Format: cell-based
Conditions: IFNγ in supernatant by ELISA, NK92 cells with IL-12, 24 h
Excerpt: TYK2 belongs to the JAK family, and can accept the ligand acting on the coupled receptor signal to regulate downstream signal activator of transcription (STAT) phosphorylation. Phosphorylation of STAT can regulate the expression of downstream related genes, leading to changes in physiological functions such as cell proliferation and differentiation. IL-12 mediates IFNγ expression in NK92 cells through JAK2/TYK2.
Therefore, by inhibiting TYK2 activity, inhibition of this cascade pathway leads to a decrease in IFNγ expression. However, IL-2 can induce NK92 proliferation and produce IFNγ through receptor-coupled […], so the influence of IL-2 needs to be ruled out. In this experiment, the activity of compounds on JAK2/TYK2 was evaluated by detecting the expression of IFNγ at various compound concentrations.
The test compound was dissolved in DMSO, prepared into a 20 mM stock solution, and stored at -20° C. for future use. The mother solution was diluted 10 times with DMSO to make a 2 mM solution, then diluted with medium to an initial concentration of […], and then diluted 3-fold with medium containing 5% DMSO to obtain a prepared concentration gradient of […], 33333.3 nM, 11111.1 nM, 3703.70 nM, 1234.57 nM, 411.523 nM, 137.174 nM, 45.7247 nM, 15.2416 nM; 10 ul of the above-mentioned concentration of drugs were added into a 96-well plate to obtain the final concentrations of […], 3333.3 nM, 1111.1 nM, 370.4 nM, 123.5 nM, 41.1 nM, 13.7 nM, 4.6 nM, 1.52 nM;
NK92 cells were resuscitated and cultured, 16 h before the experiment, the medium was replaced with interleukin-free medium. The mixture was centrifuged and IL-12 medium was added to resuspend the cells, seeded 95 ul in a 96-well plate at a density of 20,000 cells/well, 10 ul of the above gradual dilution was added and incubated for 24 h, centrifuged to take the supernatant, diluted 3-fold with pure water, and the IFNγ concentration of the supernatant was detected by ELISA, the IC50 value was calculated.

IC50 (NK92, 24 h) [nM]	SMILES	IC50 [nM]
102	COCC(C)(C)COc1cc(-c2cn(C)c3cnc(NC(C)=O)cc23)nc2c1CCOC21CCOC1 (centres unmarked) [Example 30, N-(3-(4′-(3-Methoxy-2,2-Dimethylpropoxy)-4,5,5′,6′-Tetrahydro-2H-Spiro[Furan-3,8′-Pyrano[3,4-b]Pyridin]-2′-yl)-1-Methyl-1H-Pyrrolo[2,3-c]Pyridin-5-yl)Acetamide]	
30.6	COCCOCCCOc1cc(-c2cn(C)c3cnc(NC(C)=O)cc23)nc2c1CCOC21CCOC1 (centres unmarked) [Example 32, N-(3-(4′-(3-(2-Methoxyethoxy)Propoxy)-4,5,5′,6′-Tetrahydro-2H-Spiro[Furan-3,8′-Pyrano[3,4-b]Pyridin]-2′-yl)-1-Methyl-1H-Pyrrolo[2,3-c]Pyridin-5-yl)Acetamide]	
38.6	CC(=O)Nc1cc2c(-c3cc(OCCCOC(F)F)c4c(n3)C3(CCOC3)OCC4)cn(C)c2cn1 (centres unmarked) [Example 33, N-(3-(4′-(3-(Difluoromethoxy)Propoxy)-4,5,5′,6′-Tetrahydro-2H-Spiro[Furan-3,8′-Pyrano[3,4-b]Pyridin]-2′-yl)-1-Methyl-1H-Pyrrolo[2,3-c]Pyridin-5-yl)Acetamide]	
34.3	CC(=O)Nc1cc2c(-c3cc(OCCCO)c4c(n3)C3(CCOC3)OCC4)cn(C)c2cn1 (centres unmarked) [Example 34, N-(3-(4′-(3-Hydroxypropoxy)-4,5,5′,6′-Tetrahydro-2H-Spiro[Furan-3,8′-Pyrano[3,4-b]Pyridin]-2′-yl)-1-Methyl-1H-Pyrrolo[2,3-c]Pyridin-5-yl)Acetamide]	
20.4	CC(=O)Nc1cc2c(-c3cc(OCC(C)(C)CO)c4c(n3)C3(CCOC3)OCC4)cn(C)c2cn1 (centres unmarked) [Example 35, N-(3-(4′-(3-Hydroxy-2,2-Dimethylpropoxy)-4,5,5′,6′-Tetrahydro-2H-Spiro[Furan-3,8′-Pyrano[3,4-b]Pyridin]-2′-yl)-1-Methyl-1H-Pyrrolo[2,3-c]Pyridin-5-yl)Acetamide]	
52.9	COCCOCc1cc(-c2cn(C)c3cnc(NC(C)=O)cc23)nc2c1CCOC21CCOC1 (centres unmarked) [Example 36, N-(3-(4′-((2-Methoxyethoxy)Methyl)-4,5,5′,6′-Tetrahydro-2H-Spiro[Furan-3,8 ‘-Pyrano[3,4-b]Pyridin]-2′-yl)-1methyl-1H-Pyrrolo[2,3-c]Pyridin-5-yl)Acetamide]	
	CO[C@@H](C)CCOc1cc(-c2cn(C)c3cnc(NC(C)=O)cc23)nc2c1CCOC21CCOC1 (stereo partly drawn) [Example 38, N-(3-(4′-((S)-3-Methoxybutoxy)-4,5,5′,6′-Tetrahydro-2H-Spiro[Furan-3,8′-Pyrano[3,4-b]Pyridin]-2′-yl)-1-Methyl-1H-Pyrrolo[2,3-c]Pyridin-5-yl)Acetamide]	27.7
9.6	CC(=O)Nc1cc2c(-c3cc(CC#N)c4c(n3)C3(CCOC3)OCC4)cn(C)c2cn1 (centres unmarked) [Example 42, N-(3-(4′-(Cyanomethyl)-4,5,5′,6′-Tetrahydro-2H-Spiro[Furan-3,8′-Pyrano[3,4-b]Pyridin]-2′-yl)-1-Methyl-1H-Pyrrolo[2,3-c]Pyridin-5-yl)Acetamide]	
40.2	CC(=O)Nc1cc2c(-c3cc(SCCC(C)(C)O)c4c(n3)C3(CCOC3)OCC4)cn(C)c2cn1 (centres unmarked) [Example 44, N-(3-(4′-((3-Hydroxy-3-Methylbutyl)Thio)-4,5,5′,6′-Tetrahydro-2H-Spiro[Furan-3,8′-Pyrano[3,4-b]Pyridin]-2′-yl)-1-Methyl-1H-Pyrrolo[2,3-c]Pyridin-5-yl)Acetamide]	
111	CC(=O)Nc1cc2c(-c3cc(COCC(C)(C)O)c4c(n3)C3(CCOC3)OCC4)cn(C)c2cn1 (centres unmarked) [Example 45, N-(3-(4′-((2-Hydroxy-2-Methylpropoxy)Methyl)-4,5,5′,6′-Tetrahydro-2H-Spiro[Furan-3,8′-Pyrano[3,4-b]Pyridin]-2′-yl)-1-Methyl-1H-Pyrrolo[2,3-c]Pyridin-5-yl)Acetamide]	
115	CC(=O)Nc1cc2c(-c3cc(NCCC(C)(C)O)c4c(n3)C3(CCOC3)OCC4)cn(C)c2cn1 (centres unmarked) [Example 48, N-(3-(4′-((3-Hydroxy-3-Methylbutyl)Amino)-4,5,5′,6′-Tetrahydro-2H-Spiro[Furan-3,8′-Pyrano[3,4-b]Pyridin]-2′-yl)-1-Methyl-1H-Pyrrolo[2,3-c]Pyridin-5-yl)Acetamide]	

SMILES	IC50 (NK92, 24 h) [nM]	IC50 [nM]
COC(C)CCOc1cc(-c2cn(C)c3cnc(NC(C)=O)cc23)nc2c1CCOC21CCOC1 (stereo in doubt) [Example 43, N-(3-(4′-((R)-3-Methoxybutoxy)-4,5,5′,6′-Tetrahydro-2H-Spiro[Furan-3,8′-Pyrano[3,4-b]Pyridin]-2′-yl)-1-Methyl-1H-Pyrrolo[2,3-c]Pyridin-5-yl)Acetamide]	26.4	
CC(=O)Nc1cc2c(-c3cc(OCC[C@@H](C)O)c4c(n3)C3(CCOC3)OCC4)cn(C)c2cn1 (stereo partly drawn) [Example 37, N-(3-(4′-((R)-3-Hydroxybutoxy)-4,5,5′,6′-Tetrahydro-2H-Spiro[Furan-3,8′-Pyrano[3,4-b]Pyridin]-2′-yl)-1-Methyl-1H-Pyrrolo[2,3-c]Pyridin-5-yl)Acetamide]	20	
CC(=O)Nc1cc2c(-c3cc(OCC[C@H](C)O)c4c(n3)C3(CCOC3)OCC4)cn(C)c2cn1 (stereo partly drawn) [Example 39, N-(3-(4′-((S)-3-Hydroxybutoxy)-4,5,5′,6′-Tetrahydro-2H-Spiro[Furan-3,8′-Pyrano[3,4-b]Pyridin]-2′-yl)-1-Methyl-1H-Pyrrolo[2,3-c]Pyridin-5-yl)Acetamide]	11	
CC(=O)Nc1cc2c(-c3cc(OCCC(C)(C)C#N)c4c(n3)C3(CCOC3)OCC4)cn(C)c2cn1 (centres unmarked) [Example 40, N-(3-(4′-(3-Cyano-3-Methylbutoxy)-4,5,5′,6′-Tetrahydro-2H-Spiro[Furan-3,8′-Pyrano[3,4-b]Pyridin]-2′-yl)-1-Methyl-1H-Pyrrolo[2,3-c]Pyridin-5-yl)Acetamide]	152	
CC(=O)Nc1cc2c(-c3cc(OCCC(C)(C)O)c4c(n3)C3(CCOC3)OCC4)cn(C3COC3)c2cn1 (centres unmarked) [Example 49, N-(3-(4′-(3-Hydroxy-3-Methylbutoxy)-4,5,5′,6′-Tetrahydro-2H-Spiro[Furan-3, 8′-Pyrano[3,4-b]Pyridin]-2′-yl)-1-(Oxetan-3-yl)-1H-Pyrrolo[2,3-c]Pyridin-5-yl)Acetamide]	68.1	
CC(=O)Nc1cc2c(-c3cc(OCCC(C)(C)O)c4c(n3)C3(CCOC3)OCC4)cn(C(C)C)c2cn1 (centres unmarked) [Example 50, N-(3-(4′-(3-Hydroxy-3-Methylbutoxy)-4,5,5′,6′-Tetrahydro-2H-Spiro[Furan-3, 8′-Pyrano[3,4-b]Pyridin]-2′-yl)-1-Isopropyl-1H-Pyrrolo[2,3-c]Pyridin-5-yl)Acetamide]	47	
